{"source": "patent US4774184A", "about": "“Culture and process for producing antibiotic LL-D42067alpha” (American Cyanamid Company, priority 1985, dated 1988)", "type_in_all_cases": "cell-based", "key": {"[1]": {"tested_on": "Acinetobacter calcoaceticus", "test": "in vitro antimicrobial spectrum, agar plate dilution MIC", "conditions": "strain Stfd-79-17, Mueller-Hinton agar, 18 hours, 35° C., read-out: minimal inhibitory concentration (MIC)", "method": "(§1) The in vitro antimicrobial spectrum of LL-D42067α was determined by the agar plate dilution method with Mueller-Hinton agar and an inoculum of each test organism of approximately 10^4 colony forming units delivered by the Steers replicating device. The minimal inhibitory concentration (MIC) in mcg/ml was defined as the lowest concentration of LL-D42067α that inhibited visible growth after 18 hours incubation at 35° C."}, "Bacillus cereus": {"tested_on": "Bacillus cereus", "test": "in vitro antimicrobial spectrum, agar plate dilution MIC", "conditions": "strain LL #4, Mueller-Hinton agar, 18 hours, 35° C., read-out: minimal inhibitory concentration (MIC)", "method": "as §1"}, "Bacillus subtilis": {"tested_on": "Bacillus subtilis", "test": "in vitro antimicrobial spectrum, agar plate dilution MIC", "conditions": "ATCC6633, strain ATCC 6633, Mueller-Hinton agar, 18 hours, 35° C., read-out: minimal inhibitory concentration (MIC)", "method": "as §1"}, "Candida albicans": {"tested_on": "Candida albicans", "test": "in vitro antimicrobial spectrum, agar plate dilution MIC", "conditions": "strain CA 300, Mueller-Hinton agar, 18 hours, 35° C., read-out: minimal inhibitory concentration (MIC)", "method": "as §1"}, "Escherichia coli": {"tested_on": "Escherichia coli", "test": "in vitro antimicrobial spectrum, agar plate dilution MIC", "conditions": "18 hours, 35° C., read-out: minimal inhibitory concentration (MIC)", "method": "as §1"}, "Klebsiella pneumoniae": {"tested_on": "Klebsiella pneumoniae", "test": "in vitro antimicrobial spectrum, agar plate dilution MIC", "conditions": "strain AD, Mueller-Hinton agar, 18 hours, 35° C., read-out: minimal inhibitory concentration (MIC)", "method": "as §1"}, "Micrococcus luteus": {"tested_on": "Micrococcus luteus", "test": "in vitro antimicrobial spectrum, agar plate dilution MIC", "conditions": "strain PC 1001, Mueller-Hinton agar, 18 hours, 35° C., read-out: minimal inhibitory concentration (MIC)", "method": "as §1"}, "Proteus morganii": {"tested_on": "Proteus morganii", "test": "in vitro antimicrobial spectrum, agar plate dilution MIC", "conditions": "Morganella morganii; strain K-79-25; Mueller-Hinton agar, 18 hours, 35° C.; read-out: minimal inhibitory concentration (MIC)", "method": "as §1"}, "Saccharomyces cerevisiae": {"tested_on": "Saccharomyces cerevisiae", "test": "in vitro antimicrobial spectrum, agar plate dilution MIC", "conditions": "strain Y 15, Mueller-Hinton agar, 18 hours, 35° C., read-out: minimal inhibitory concentration (MIC)", "method": "as §1"}, "Staphylococcus aureus": {"tested_on": "Staphylococcus aureus", "test": "in vitro antimicrobial spectrum, agar plate dilution MIC", "conditions": "Mueller-Hinton agar, 18 hours, 35° C.; for MIC: Staphylococcus aureus, read-out: minimal inhibitory concentration (MIC)", "method": "as §1"}, "[2]": {"tested_on": "Staphylococcus epidermidis", "test": "in vitro antimicrobial spectrum, agar plate dilution MIC", "conditions": "18 hours, 35° C., read-out: minimal inhibitory concentration (MIC)", "method": "as §1"}, "[3]": {"tested_on": "Streptococcus (enterococcus sp)", "test": "in vitro antimicrobial spectrum, agar plate dilution MIC", "conditions": "Mueller-Hinton agar, 18 hours, 35° C.", "method": "as §1"}, "Streptococcus faecalis": {"tested_on": "Streptococcus faecalis", "test": "in vitro antimicrobial spectrum, agar plate dilution MIC", "conditions": "Enterococcus faecalis, ATCC29212; strain ATCC 29212; Mueller-Hinton agar, 18 hours, 35° C.; read-out: minimal inhibitory concentration (MIC)", "method": "as §1"}, "Streptococcus mutans": {"tested_on": "Streptococcus mutans", "test": "in vitro antimicrobial spectrum, agar plate dilution MIC", "conditions": "18 hours, 35° C., read-out: minimal inhibitory concentration (MIC)", "method": "as §1"}, "Streptococcus sanguis": {"tested_on": "Streptococcus sanguis", "test": "in vitro antimicrobial spectrum, agar plate dilution MIC", "conditions": "strain G9B (a), Mueller-Hinton agar, 18 hours, 35° C., read-out: minimal inhibitory concentration (MIC)", "method": "as §1"}, "gram-positive bacteria": {"tested_on": "gram-positive bacteria", "test": "in vitro antimicrobial spectrum, summary in words", "conditions": "summary of Table VI", "method": "as §1"}, "yeasts": {"tested_on": "yeasts", "test": "in vitro antimicrobial spectrum, summary in words", "conditions": "summary of Table VI", "method": "as §1"}}, "note": "Like-named read-outs stand apart in the source and are kept apart here.", "data": [{"smiles": "COc1c2c(c(O)c3c(=O)c4c(oc13)C(O)CCC4O)-c1c3c(c4cc(C)n(C)c(=O)c4c1O)OCOC3C2", "note": "(stereo not drawn) [LL-D42067α]", "values": [{"measurement": "MIC", "setting": "[1]", "result": 512, "unit": "µg/mL"}, {"measurement": "MIC", "setting": "Bacillus cereus", "result": "≤ 0.06", "unit": "µg/mL"}, {"measurement": "MIC", "setting": "Bacillus subtilis", "result": "≤ 0.06", "unit": "µg/mL"}, {"measurement": "MIC", "setting": "Candida albicans", "result": 256, "unit": "µg/mL"}, {"measurement": "MIC", "setting": "Escherichia coli; ATCC25922, strain ATCC 25922, Mueller-Hinton agar", "result": 512, "unit": "µg/mL"}, {"measurement": "MIC", "setting": "Escherichia coli; strain #311, Mueller-Hinton agar", "result": 512, "unit": "µg/mL"}, {"measurement": "MIC", "setting": "Klebsiella pneumoniae", "result": 512, "unit": "µg/mL"}, {"measurement": "MIC", "setting": "Micrococcus luteus", "result": "≤ 0.06", "unit": "µg/mL"}, {"measurement": "MIC", "setting": "Proteus morganii", "result": 512, "unit": "µg/mL"}, {"measurement": "MIC", "setting": "Saccharomyces cerevisiae", "result": 32, "unit": "µg/mL"}, {"measurement": "MIC", "setting": "Staphylococcus aureus; ATCC25923, strain ATCC 25923", "result": "≤ 0.06", "unit": "µg/mL"}, {"measurement": "MIC", "setting": "Staphylococcus aureus; strain Smith", "result": "≤ 0.06", "unit": "µg/mL"}, {"measurement": "minimal inhibitory concentration (MIC)", "setting": "Staphylococcus aureus; strain LL #14", "result": "≤ 0.06", "unit": "µg/mL"}, {"measurement": "minimal inhibitory concentration (MIC)", "setting": "Staphylococcus aureus; strain LL #27", "result": "≤ 0.06", "unit": "µg/mL"}, {"measurement": "minimal inhibitory concentration (MIC)", "setting": "Staphylococcus aureus; strain LL #45", "result": "≤ 0.06", "unit": "µg/mL"}, {"measurement": "MIC", "setting": "[2]; ATCC12228, strain ATCC 12228, Mueller-Hinton agar", "result": "≤ 0.06", "unit": "µg/mL"}, {"measurement": "MIC", "setting": "[2]; strain CMC-83-56, Mueller-Hinton agar", "result": "≤ 0.06", "unit": "µg/mL"}, {"measurement": "MIC", "setting": "[3]; Streptococcus, strain OSU-75-1, read-out: minimal inhibitory concentration (MIC)", "result": "≤ 0.06", "unit": "µg/mL"}, {"measurement": "minimal inhibitory concentration (MIC)", "setting": "[3]; strain SM-77-15", "result": "≤ 0.06", "unit": "µg/mL"}, {"measurement": "MIC", "setting": "Streptococcus faecalis", "result": "≤ 0.06", "unit": "µg/mL"}, {"measurement": "MIC", "setting": "Streptococcus mutans; ATCC27352, strain ATCC 27352, Mueller-Hinton agar", "result": "≤ 0.06", "unit": "µg/mL"}, {"measurement": "MIC", "setting": "Streptococcus mutans; strain BHI (b), Mueller-Hinton agar", "result": "≤ 0.06", "unit": "µg/mL"}, {"measurement": "MIC", "setting": "Streptococcus sanguis", "result": "≤ 0.06", "unit": "µg/mL"}, {"measurement": "antimicrobial activity versus gram-positive bacteria", "setting": "gram-positive bacteria", "result": "active"}, {"measurement": "antimicrobial activity against yeasts", "setting": "yeasts", "result": "moderately active"}]}]}
